Test results taken from US20180353445A1, “METHODS AND COMPOSITIONS RELATING TO PROTEASOME INHIBITOR RESISTANCE” (Whitehead Institute for Biomedical Research, priority 2017, published 2018).
“Also recorded” adds a separate entry of the source.

Experiments:
[1] = test system: T47D cells harboring a doxycycline inducible PSMD2 KD shRNA construct; test: Viability of PSMD2 knockdown versus control T47D cells, dose response and combinations (CellTiter-Glo); type: cell-based, human; settings: for sensitivity of PSMD2 KD cells versus control cells (cell viability): 1 ug/ml doxycycline 72 h, viability 72 hours after addition, CellTiter-Glo
Description: Cell viability was measured by CellTiter-Glot Luminescent Cell Viability Assay 72 hours after addition of the compounds to cells.
Cell viability was measured by CellTiter-Glo® Luminescent Cell Viability Assay 72 hours after addition of the compounds were added to cells.
Cell viability was measured by CellTiter-Glolk Luminescent Cell Viability Assay 72 hours after addition of the compounds to cells.
To directly test whether altered cellular metabolism can modulate the sensitivity of cancer cells to proteasome inhibitors, we engineered the breast cancer cell line T47D into Lo19S and increased OXPHOS states. Initially, we reconstituted the Lo19S state by transient suppression of the PSMD2 subunit of the 19S complex using an inducible shRNA.
To induce a high OXPHOS (Hi-OXPHOS) state, we changed the carbon source in the cell culture media from glucose to galactose, which is poorly fermentable. This method has been previously shown to drive glutamine utilization by mitochondria and to thus increase mitochondrial respiration (Gohil et al., 2010). […] We reasoned that the Hi-OXPHOS signature we identified in Lo19S patient tumors may cooperate with the Lo19S state to further promote the ability of the cells to withstand proteotoxic stress.
Cell viability—where indicated relative cell number following different drug treatment was conducted by plating cells at 1000 cells/well in 384 well plates. Indicated concentrations of compounds were added 24 hour after plating at least in triplicate for each condition. Viability was measured 72 hours after drug addition using cell titer-glo (Promega) according to manufactures protocol. Same protocol was applied for the experiments conducted for the Lo19S T47D, MCF7 and T47D in the context of altered carbon source only the cells were plated at 1000 cells/well in RPMI media (without glucose and with dialyzed serum) containing either 10 mM Glucose or lOmM galactose.

T47D cells = test: The glucose/galactose drug screen; type: cell-based, human; settings: for relative viability change of cells grown in glucose versus galactose: 10 mM Glucose or Galactose, Selleck anti cancer and natural product libraries
MM.1.S xenograft = test: Disseminated (orthotopic) multiple myeloma MM.1.S xenograft model and survival study; type: in vivo, mouse; settings: for effect on tumor burden / tumor progression (BLI) / median OS: SCID mice, MM.1.S; for effect on tumor burden / tumor progression (BLI): bioluminescence imaging; for median OS: control median OS 36
Description: To test this hypothesis, we established an orthotopic luciferized MM.1.S xenograft model by intravenous injection of MM.1.S cells into severe combined immunodeficient (SCID) mice. After engraftment, the mice were randomized into treatment groups, each carrying equivalent tumor burdens based on bioluminescence imaging (BLI). Mice were then treated with either vehicle alone, bortezomib, elesclomol or with the two drugs in combination.
GFP^+/Luc^+MM.1S cells were generated by retroviral transduction of the human MM1.S that was purchased from ATCC (Manassas, Va., USA)., using the pGC-GFP/Luc vector. Cells were authenticated by short tandem repeat DNA profiling.
Disseminated Multiple Myeloma Animal model and survival study—A total of 25 Female SCID-beige mice at 4-6 weeks of age (Taconic, USA) were utilized for the study. Tumors cells (3 million […] MM1S cells/mouse) were introduced into mice via intravenous injection and were allowed to grow until the LUC signal from their tumors reached 1×10^7 radians (photons/sec/cm^2/surface area). Tumor growth was monitored weekly by bioluminescence imaging (BLI), using an IVIS Spectrum-bioluminescent and fluorescent imaging system (Perkins Elmer). Mice were randomly attributed a group of treatment (n=5 per group). Control group was IV injected once a week 200 uL saline solution; Bortezomib (0.25 mg/kg, 100 uL) was IP injected first day of the week, once a week until death of the animal. Elesclomol (25 mg/kg, 100 uL) was subcutaneously injected every 3rd day of the week until death of the animal. Elesclomol+Bortezomib group were treated similarly to previous groups. The delayed group started the elesclomol treatment 14 days after the inclusion of the animal in the study. Endpoint of the study was dictated by either limb-paralysis of the animal or severe toxicity induced by the treatment as per Dana-Farber Animal policy.

| SMILES | sensitivity of PSMD2 KD cells versus control cells (cell viability) [1] | increase in the EC90 on combining the Lo19S and Hi-OXPHOS states ([1]; T47D, PSMD2 suppression plus galactose medium) [fold] | increase of proliferation inhibition EC50 on inducing the Lo19S state ([1]; T47D, transient PSMD2 suppression versus control) [fold] | relative viability change of cells grown in glucose versus galactose (T47D cells) | effect on tumor burden / tumor progression (BLI) (MM.1.S xenograft) | median OS (MM.1.S xenograft) | number of concentrations at which respiring cells were preferentially targeted (T47D cells; galactose versus glucose) [concentrations] | effect on survival (MM.1.S xenograft; versus control) |
| --- | --- | --- | --- | --- | --- | --- | --- | --- |
| CC1(C)CCC(c2ccc(Cl)cc2)=C(CN2CCN(c3ccc(C(=O)NS(=O)(=O)c4ccc(N[C@H](CCN5CCOCC5)CSc5ccccc5)c(S(=O)(=O)C(F)(F)F)c4)cc3)CC2)C1 [ABT-263, navitoclax] | more sensitive; also recorded: not sufficient, however, to induce a profound sensitization | – | – | – | – | – | – | – |
| CC(C)C[C@H](NC(=O)[C@H](Cc1ccccc1)NC(=O)c1cnccn1)B(O)O [bortezomib] | increase in resistance | 50 | ~4 | strongest hits in this screen | modest effects on tumor burden | 40 | – | – |
| CN(NC(=O)CC(=O)NN(C)C(=S)c1ccccc1)C(=S)c1ccccc1 [elesclomol] | – | – | – | cells that respire are predominantly sensitive; also recorded: preferentially targeted respiring cells; also recorded: more potent in cells in the Hi-OXPHOS state | modest effects on tumor burden | 39 | 5 | modestly but significantly increased survival |
